Patent US20260242427A1 (priority 2024, published 2026)

Columns and labels:
[1] = biological target: T1, Pos3Aa crystals (positively charged variant of Cry3Aa, domain II surface residues mutated) (Bacillus thuringiensis, UniProt P0A379); assay: NADH binding capacity of Pos3Aa crystals; details: 0.25 mM NADH, 10° C., 30 min, 340 nm
T1 construct: engineered Cry3Aa, domain II surface residues replaced by Lys/Arg; no PEI; crystals produced in Bacillus thuringiensis (usual host)
Protocol: Previous studies by our lab had generated a positively charged variant of Cry3Aa, Pos3Aa, by mutating multiple residues on the surface of domain II of Cry3Aa to lysines creating a positively charged surface.
To compare the binding capacity of 3A-PEI crystals with Cry3Aa and Pos3Aa crystals, the same experiment was conducted as the control.
Cry3Aa is a self-crystallization protein produced naturally by certain strains of Bt. Our group has used crystals and particles of Cry3Aa for entrapment of positively charged small peptides and proteins due to the presence of abundant negatively charged residues, aspartic acid (Asp) and glutamic acid (Glu) residues, on the exposed surface of its domain II, which forms the solvent channels (FIG. 1A). We have engineered a protein called Pos3Aa, derived from the replacement of all these residues in domain II of Cry3Aa with positively charged arginine (Arg) and lysine (Lys) residues, which provide positively charged channels within the crystals. We hypothesized that these crystals would be able to entrap negatively charged molecules, such as phosphorylated cofactors, ionically inside the channels. […] Each molecular mass unit of this polymer (43 kDa) has 3 to 3.6-fold higher protonated nitrogen than poly-Arg and poly-Lys (one positive charge per 157 and 129 molecular masses), respectively. […]

[2] = biological target: T2, 3A-PEI crystals (polyethylenimine-modified Cry3Aa, Bacillus thuringiensis) (Bacillus thuringiensis subsp. tenebrionis, UniProt P0A379); assay: NADH binding capacity of 3A-PEI crystals; details: NaPB 25 mM
T2 construct: made in house; host or cells: Bacillus thuringiensis BT407G
T2 sequence (P0A379 1-644): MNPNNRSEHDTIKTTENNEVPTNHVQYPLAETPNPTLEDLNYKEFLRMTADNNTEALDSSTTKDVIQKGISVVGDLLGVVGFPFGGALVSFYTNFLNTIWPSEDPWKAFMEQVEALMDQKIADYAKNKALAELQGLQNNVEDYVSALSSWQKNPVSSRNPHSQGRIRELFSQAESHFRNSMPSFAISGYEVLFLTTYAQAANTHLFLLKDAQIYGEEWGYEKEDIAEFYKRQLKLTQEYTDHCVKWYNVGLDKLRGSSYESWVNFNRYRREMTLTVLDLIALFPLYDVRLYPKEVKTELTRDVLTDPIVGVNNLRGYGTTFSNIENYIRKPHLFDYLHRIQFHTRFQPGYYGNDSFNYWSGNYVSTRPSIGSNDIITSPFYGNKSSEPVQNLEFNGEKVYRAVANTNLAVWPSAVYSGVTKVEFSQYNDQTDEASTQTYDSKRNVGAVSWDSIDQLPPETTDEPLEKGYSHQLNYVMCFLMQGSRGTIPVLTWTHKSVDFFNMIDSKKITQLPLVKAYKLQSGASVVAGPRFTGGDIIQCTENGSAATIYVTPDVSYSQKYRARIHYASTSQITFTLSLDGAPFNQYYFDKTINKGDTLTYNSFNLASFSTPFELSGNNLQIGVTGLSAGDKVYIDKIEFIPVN

[3] = biological target: T3, human arginase I (hArg, Accession Number: NM_000045.4), free enzyme (Homo sapiens, UniProt P05089); assay: Effect of urea on the activity of hArg; type: biochemical; details: 0 to 1 M urea, 40° C., 6 h
T3 construct: His tag with thrombin site of pET28 (inferred from the NdeI primer, the stop codon in the reverse primer and nickel purification); made in house; host or cells: E. coli BL21(DE3)
Protocol: (§1) All experiments were performed in triplicate.
as §1

[4] = biological target: T3, human arginase I (hArg, Accession Number: NM_000045.4), free enzyme; type: biochemical; details: L-arginine 0-500 mM, 40° C., 50 mM HEPES pH 8.0, 0.1 mM Mn^2+
Protocol: All positive colonies were verified by DNA sequencing (BGI).
Expression and Purification of ODC and hArg Free Enzymes
as §1, §1

[5] = biological target: T4, hArg-Cry1Ab fusion particles (human arginase I fused to the N-terminus of Cry1Ab) (Homo sapiens, UniProt P05089); assay: Kinetic studies, immobilized hArg-Cry1Ab particles; type: biochemical; details: L-arginine 0-500 mM, 40° C., pH 8.0, 0.1 mM Mn^2+, based on concentration of hArg
T4 construct: His tag of pET28 (inferred from the NdeI forward primer only) (N); made in house; host or cells: E. coli BL21(DE3)
T4 sequence (P05089 other isoform, or with tags, fused parts or gaps): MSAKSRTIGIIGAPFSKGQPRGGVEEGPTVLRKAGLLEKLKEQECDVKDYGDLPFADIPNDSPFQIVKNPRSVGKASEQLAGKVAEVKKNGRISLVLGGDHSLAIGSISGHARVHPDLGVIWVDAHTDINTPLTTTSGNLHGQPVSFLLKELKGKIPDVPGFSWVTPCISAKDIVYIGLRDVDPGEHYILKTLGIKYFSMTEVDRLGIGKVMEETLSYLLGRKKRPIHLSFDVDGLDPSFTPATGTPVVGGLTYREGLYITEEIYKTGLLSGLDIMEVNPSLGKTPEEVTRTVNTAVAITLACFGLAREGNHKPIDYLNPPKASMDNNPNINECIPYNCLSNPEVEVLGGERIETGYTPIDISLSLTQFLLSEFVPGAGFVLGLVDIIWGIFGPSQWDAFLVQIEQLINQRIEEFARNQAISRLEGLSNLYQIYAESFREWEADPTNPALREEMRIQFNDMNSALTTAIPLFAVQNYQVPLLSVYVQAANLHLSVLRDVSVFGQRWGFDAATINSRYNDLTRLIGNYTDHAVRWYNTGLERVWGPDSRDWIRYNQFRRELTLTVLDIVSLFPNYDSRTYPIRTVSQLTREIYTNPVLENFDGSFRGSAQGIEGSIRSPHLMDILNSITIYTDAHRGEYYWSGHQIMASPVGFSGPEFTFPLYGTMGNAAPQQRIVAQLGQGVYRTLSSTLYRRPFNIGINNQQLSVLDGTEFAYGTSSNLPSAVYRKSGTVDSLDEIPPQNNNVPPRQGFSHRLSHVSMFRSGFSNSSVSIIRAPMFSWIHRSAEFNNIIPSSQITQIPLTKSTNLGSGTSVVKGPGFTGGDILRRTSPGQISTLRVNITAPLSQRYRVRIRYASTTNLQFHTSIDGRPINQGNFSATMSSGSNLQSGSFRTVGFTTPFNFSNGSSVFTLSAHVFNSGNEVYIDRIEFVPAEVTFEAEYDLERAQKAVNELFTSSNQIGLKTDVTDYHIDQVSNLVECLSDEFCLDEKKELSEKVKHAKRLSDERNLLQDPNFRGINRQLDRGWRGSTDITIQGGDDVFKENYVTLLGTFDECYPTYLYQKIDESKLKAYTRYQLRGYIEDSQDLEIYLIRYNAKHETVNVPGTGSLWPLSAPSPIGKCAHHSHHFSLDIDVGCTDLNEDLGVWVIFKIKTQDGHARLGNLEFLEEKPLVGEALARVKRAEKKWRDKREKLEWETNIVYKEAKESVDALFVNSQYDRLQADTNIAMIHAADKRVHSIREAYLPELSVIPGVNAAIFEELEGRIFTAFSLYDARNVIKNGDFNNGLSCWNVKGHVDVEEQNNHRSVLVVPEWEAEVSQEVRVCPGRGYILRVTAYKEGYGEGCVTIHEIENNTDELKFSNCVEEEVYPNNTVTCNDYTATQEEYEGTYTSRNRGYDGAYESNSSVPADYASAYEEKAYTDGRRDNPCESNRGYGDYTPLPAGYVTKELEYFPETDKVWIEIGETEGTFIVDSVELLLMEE

T3 sequence (P05089 whole entry): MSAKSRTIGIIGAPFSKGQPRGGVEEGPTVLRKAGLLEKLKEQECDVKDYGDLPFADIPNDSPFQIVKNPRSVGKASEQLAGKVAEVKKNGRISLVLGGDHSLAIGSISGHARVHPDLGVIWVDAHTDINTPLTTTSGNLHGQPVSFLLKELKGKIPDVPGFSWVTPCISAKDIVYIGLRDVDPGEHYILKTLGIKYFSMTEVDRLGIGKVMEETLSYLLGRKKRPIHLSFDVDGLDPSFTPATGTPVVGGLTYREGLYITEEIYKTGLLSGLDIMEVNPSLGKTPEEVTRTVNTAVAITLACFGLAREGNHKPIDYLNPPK

How did the NADH binding capacity [1] turn out when `NC(=O)C1=CN([C@@H]2O[C@H](COP(=O)(O)OP(=O)(O)OC[C@H]3O[C@@H](n4cnc5c(N)ncnc54)[C@H](O)[C@@H]3O)[C@@H](O)[C@H]2O)C=CC1` [NADH, nicotinamide adenine dinucleotide] was run?
The NADH binding capacity was 11.2 ± 0.7 µmol/g.

What about the NADH binding capacity ([2]; pH 6.0) of the same compound?
The NADH binding capacity was 453.5 ± 2.8 µmol/g.

And the NADH binding capacity ([2]; pH 7.0)?
The NADH binding capacity was 412 ± 4 µmol/g.

What about the NADH binding capacity ([2]; pH 8.0) of the same compound?
The NADH binding capacity was 350.2 ± 3.6 µmol/g.

How did the “effect of urea on activity” value [3] turn out when `NC(N)=O` [urea] was run?
The value was “unaffected”.

What does the source list for `N=C(N)NCCC[C@H](N)C(=O)O` [L-arginine]?
kcat [4]: 99.9 ± 1.7 s⁻¹; Km ([4]; read-out: appKm): 20 ± 1.3 mM; kcat [5]: 59.7 ± 0.8 s⁻¹; Km ([5]; read-out: appKm): 18.5 ± 0.3 mM
